Laboratory results reported in patent US6465489B1, “Ureidopiperidine derivatives as selective human NK3 receptor antagonists” (Sanofi-Synthelabo, priority 1998, dated 2002).

Tested on: bronchitic and cough response induced by citric acid
Test: Bronchitic and cough response induced by citric acid in guinea pigs
Format: in vivo, guinea pig
Details: compared with osanetant
Excerpt: In guinea pigs, the effect on the bronchitic and cough response induced by citric acid has been studied using the model described by S. Daoui et al., in Am. J. Resp. Crit. Care Med., 1998, 158, 42-48. In this test, the Example 10 compound has shown an activity 10 times greater than that of osanetant.

CN(C)C(=O)NC1(c2ccccc2)CCN(CCCC2(c3ccc(Cl)c(Cl)c3)CCCN(C(=O)c3ccccc3)C2)CC1 (stereo not shown) [Example 10]
activity relative to osanetant: 10 times
